Laboratory results taken from PubChem BioAssay AID248 (DTP/NCI, 2004).
Toxic doses and inconclusive results are not listed. Rule as the data show it: active = T/C of 150% or more; inactive = T/C below 125%.

Tested on: L1210 leukemia ip in BDF1 mice, survival T/C
Experiment: NCI In Vivo Anticancer Drug Screen. Data for tumor model L1210 Leukemia (intraperitoneal) in B6D2F1 (BDF1) mice
Details: endpoint: mean survival time, higher = longer survival
How it was run: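 Transplantable tumor model; survival measured in treated vs vehicle control mice. Value = treated/control.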

Measured: T/C

CCOC(=O)Nc1ccccc1-c1ccccc1
inactive: dose: 100.0 mg/kg/injection, schedule: Q04DX002 (sc), vehicle: olive oil, sesame oil, peanut oil 94 % of control | dose: 200.0 mg/kg/injection, schedule: Q04DX002 (sc), vehicle: olive oil, sesame oil, peanut oil 105 % of control | dose: 400.0 mg/kg/injection, schedule: Q04DX002 (sc), vehicle: olive oil, sesame oil, peanut oil 97 % of control

CC1(C)CCC(NC(=O)NCCF)CC1
inactive: dose: 9.5 mg/kg/injection, schedule: Q01DX001 (ip), vehicle: other 95 % of control | dose: 19.0 mg/kg/injection, schedule: Q01DX001 (ip), vehicle: other 102 % of control | dose: 38.0 mg/kg/injection, schedule: Q01DX001 (ip), vehicle: other 101 % of control

NCC1OC(n2cnc3c(N)ncnc32)CC1O (centres undefined)
inactive: dose: 50.0 mg/kg/injection, schedule: Q01DX001 (ip), vehicle: carboxymethylcellulose (CMC) 107 % of control | dose: 100.0 mg/kg/injection, schedule: Q01DX001 (ip), vehicle: carboxymethylcellulose (CMC) 107 % of control | dose: 200.0 mg/kg/injection, schedule: Q01DX001 (ip), vehicle: carboxymethylcellulose (CMC) 109 % of control | dose: 400.0 mg/kg/injection, schedule: Q01DX001 (ip), vehicle: carboxymethylcellulose (CMC) 104 % of control

CC/C(=C/c1ccccc1)C(N)=O
inactive: dose: 100.0 mg/kg/injection, schedule: Q01DX001 (ip), vehicle: steriod suspending solution 87 % of control | dose: 200.0 mg/kg/injection, schedule: Q01DX001 (ip), vehicle: steriod suspending solution 103 % of control

CN(C)Cc1ccc(N)cc1
inactive: dose: 10.0 mg/kg/injection, schedule: Q01DX009 (ip), vehicle: water 107 % of control | dose: 20.0 mg/kg/injection, schedule: Q01DX009 (ip), vehicle: water 105 % of control | dose: 40.0 mg/kg/injection, schedule: Q01DX009 (ip), vehicle: water 107 % of control | dose: 50.0 mg/kg/injection, schedule: Q01DX009 (ip), vehicle: water 91 % of control | dose: 80.0 mg/kg/injection, schedule: Q01DX009 (ip), vehicle: water 96 % of control | dose: 100.0 mg/kg/injection, schedule: Q01DX009 (ip), vehicle: water 88 % of control | dose: 100.0 mg/kg/injection, schedule: Q04DX003 (ip), vehicle: water 100 % of control | dose: 200.0 mg/kg/injection, schedule: Q04DX003 (ip), vehicle: water 102 % of control

Cc1cccc(Cl)c1NC(=S)NCc1ccco1
inactive: dose: 100.0 mg/kg/injection, schedule: Q01DX009 (ip), vehicle: Klucel (hydroxypropylcellulose) (HPC) 98 % of control | dose: 200.0 mg/kg/injection, schedule: Q01DX009 (ip), vehicle: Klucel (hydroxypropylcellulose) (HPC) 98 % of control | dose: 400.0 mg/kg/injection, schedule: Q01DX009 (ip), vehicle: Klucel (hydroxypropylcellulose) (HPC) 102 % of control

NC(=O)CNCCS(=O)(=O)O
inactive: dose: 100.0 mg/kg/injection, schedule: Q01DX009 (ip), vehicle: saline 101 % of control | dose: 100.0 mg/kg/injection, schedule: Q04DX003 (ip), vehicle: saline 97 % of control | dose: 200.0 mg/kg/injection, schedule: Q01DX009 (ip), vehicle: saline 107 % of control | dose: 200.0 mg/kg/injection, schedule: Q04DX003 (ip), vehicle: saline 97 % of control | dose: 400.0 mg/kg/injection, schedule: Q01DX009 (ip), vehicle: saline 101 % of control | dose: 400.0 mg/kg/injection, schedule: Q04DX003 (ip), vehicle: saline 100 % of control
